Values of other authors in patent US20030203004A1, “Compositions comprising short and long chain fatty acids and methods of their use for the management of body weight” (priority 2002, published 2003).

Tests used:
[1] = rats; jejunally infused neat, 0.2 mL/hr for seven hours
[2] = humans; sodium propionate included in bread; attributed to delayed gastric emptying rate
[3] = rats

SMILES | total daily caloric intake [1] | satiety [2] | effect on gastric emptying [3]
CCCCC/C=C\C/C=C\CCCCCCCC(=O)O [linoleic acid] | significantly reduce | – | –
CCCCCCCC/C=C\CCCCCCCC(=O)O [oleic acid] | significantly reduce | – | –
CCC(=O)[O-].[Na+] [sodium propionate] | – | induction of satiety | no effect
